The target of this test is T1, TcEIF4E5 (Trypanosoma cruzi, UniProt A0A2V2VRR6).
T1 sequence (A0A2V2VRR6 1-200): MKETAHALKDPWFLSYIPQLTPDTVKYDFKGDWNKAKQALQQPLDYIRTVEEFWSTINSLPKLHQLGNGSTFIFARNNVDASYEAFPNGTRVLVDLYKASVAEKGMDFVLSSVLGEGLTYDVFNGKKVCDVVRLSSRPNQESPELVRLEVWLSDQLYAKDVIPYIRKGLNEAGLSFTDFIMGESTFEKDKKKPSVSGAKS
Put plainly: X-ray crystal structure. The test is classed as binding.

In general, Kd refers to the free concentration of one partner at which half of the binding sites on the other are occupied at equilibrium, for simple one-to-one binding. A low value points to higher affinity. As for `C[n+]1cn([C@@H]2O[C@H](COP(=O)(O)OP(=O)(O)OP(=O)(O)O)[C@@H](O)[C@H]2O)c2nc(N)[nH]c(=O)c21` [m7GTP], the Kd was 21 ± 7 µM.

These data come from PMC6582342 (Nucleic Acids Research, 2019).
